Measurements as given in BindingDB's records for doi:10.1021/jm00396a006 (Upjohn, 1988).
Numbered stars: 1 amine (or outer) side, 2 acyl side, 3 side chain; on linkers, the order of the positions; unused ones are H or OH. Square brackets hold non-standard residues; d marks the D form. Peptide text beside a SMILES is read from it. * marks the point of attachment. ξ: configuration not given here. Sta(3ξ) = CC(C)C[C@H](N[*:1])C(O)CC(=O)[*:2]; X1 = CC(C)CC(N[*:1])C(O)CC(=O)[*:2]; For = O=C*

Molecular target: Renin (Sus scrofa)
Assay: In vitro inhibitory activity towards porcine kidney renin

Q: With CC[C@H](C)[C@H](NC(=O)CC(O)[C@H](CC(C)C)NC(=O)[C@H](Cc1cnc[nH]1)NC(=O)[C@H](Cc1ccccc1)NC(=O)[C@@H]1CCCN1C(=O)[C@H](Cc1cnc[nH]1)NC(C)=O)C(N)=O (stereo partly drawn) [Ac-His-Pro-Phe-His-Sta-Ile-NH2] (Ac-HPFH[Sta(3ξ)]I-NH2) as the molecule, how does the IC50 read?
A: Its IC50 is 1500 nM.

Q: For CC[C@H](C)[C@H](NC(=O)CC(O)[C@H](CC(C)C)NC(=O)[C@H](Cc1cnc[nH]1)NC(=O)[C@H](Cc1ccccc1)NC(=O)[C@@H]1CCCN1C(=O)[C@H](Cc1cn(C=O)c2ccccc12)NC(C)=O)C(N)=O (stereo partly drawn) [Ac-Ftr-Pro-Phe-His-Sta-Ile-NH2], which IC50 is on record?
A: Its IC50 is 120 nM.

Q: CC(=O)N[C@@H](Cc1cn(C=O)c2ccccc12)C(=O)N1CCC[C@H]1C(=O)N[C@@H](Cc1ccccc1)C(=O)N[C@@H](Cc1cnc[nH]1)C(=O)NC(CC(C)C)C(O)CC(=O)N[C@H](C(=O)N[C@@H](Cc1cn(C=O)c2ccccc12)C(N)=O)C(C)C (stereo partly drawn) [Ac-Ftr-Pro-Phe-His-Sta-Val-Ftr-NH2] (Ac-W(For)PFH[X1]VW(For)-NH2) was tested. Which IC50 did it give?
A: Its IC50 is 4.9 nM.
